Our source for the IC50 values is patent US20230391770A1, “METTL3 INHIBITORY COMPOUNDS” (Storm Therapeutics Limited, priority 2020, published 2023).

Assay [1] deals with METTL3/14 (Homo sapiens (Human), UniProt Q86U44). The assay is described as follows: METTL3/14 methyltransferase biochemical assay (RapidFire mass spectrometry, METTL3_14 RFMS). Here is the method:
The enzymatic assay was established to determine IC50 values for inhibition of RNA methyltransferase activity. The enzyme used was full-length his-tagged METTL3 co-expressed with full length FLAG-tagged METTL14 in a baculovirus expression system. […] The reaction was incubated for further 60 minutes at room temperature, and then quenched by the addition of 40 μL 7.5% TCA with two internal product standards (D4-SAH and ^13C10-SAH). After termination, plates were sealed, centrifuged and stored at 4° C. until analysis. […] RNA methyltransferase activity was measured label free using the RapidFireTM mass spectrometry (RF/MS) platform. Stopped and stable assay plates were analyzed on the Agilent RF300 integrated autosampler/solid-phase extraction (SPE) system coupled to an ABSciex 4000 mass spectrometer for the generation of the product S-adenosyl homocysteine (SAH) and normalized to the ratio of signal of the two internal product standards, respectively. Solvent A was water containing 0.1% (v/v) TCA. Solvent B was acetonitrile/0.1% ammonium acetate (8:2, v/v).

Assay [2] relates to Caov-3 cells. The assay is described as follows: Caov3 CTG proliferation assay (CellTiter-Glo). It counts as cell-based. The note with it: Homo sapiens, 120 hours treatment, 30 μM top concentration. Here is the method: Cell treatment and cell growth assessment: 18 hours post-seeding in white 384-Viewplate (6007480, PerkinElmer) at 1500 cells/well, Caov3 cells were treated for 120 hours with compounds inhibiting the METTL3/14 activity (10 serial semi-log dilutions, 30 μM as top concentration). Upon treatment, Coav-3 cells were incubated for 10 min at RT with the CellTiter-Glo reagent (G7571, Promega). Measurement of the luminescence signal was performed on a microplate reader (Ensight, PerkinElmer).
(In general: ATP-based viability assays read luminescence as a measure of living cells.)

For assay [3], the system named is KASUMI-1 cells. The experiment in a line: Kasumi cell assay (CellTiter-Glo cell growth). In kind it is cell-based. The note with it: Homo sapiens, 120 hours treatment, 30 μM top concentration. Here is the method: Cell culture: KASUMI-1 cells (ACC20, Leibniz-Institut DSMZ Deutsche Sammlung von Mikroorganismen und Zellkulturen GmbH) were grown in RPMI 1640 (31870-025, Gibco) supplemented with 20% fetal bovine serum (F1524, Gibco), 1 mM sodium pyruvate (11360-039, Gibco) and 2 mM Glutamax (35050-038, Gibco) in a 5% CO2 humidified incubator at 37° C.
Cell treatment and cell growth assessment: KASUMI-1 […] were seeded in ultra-low attachment 384-well culture plate (MS-9384WZ, SBio) at a final concentration of 250,000 cells/ml (35 μL/well) and treated for 120 hours with compounds inhibiting the METTL3/14 activity (10 serial semi-log dilutions, 30 μM as top concentration). Upon treatment, Kasumi1 cells were incubated for 10 min at RT with the CellTiter-Glo reagent (G7571, Promega). Measurement of the luminescence signal was performed on a microplate reader (Ensight, PerkinElmer).

Chain of METTL3/14 (Q86U44 whole entry): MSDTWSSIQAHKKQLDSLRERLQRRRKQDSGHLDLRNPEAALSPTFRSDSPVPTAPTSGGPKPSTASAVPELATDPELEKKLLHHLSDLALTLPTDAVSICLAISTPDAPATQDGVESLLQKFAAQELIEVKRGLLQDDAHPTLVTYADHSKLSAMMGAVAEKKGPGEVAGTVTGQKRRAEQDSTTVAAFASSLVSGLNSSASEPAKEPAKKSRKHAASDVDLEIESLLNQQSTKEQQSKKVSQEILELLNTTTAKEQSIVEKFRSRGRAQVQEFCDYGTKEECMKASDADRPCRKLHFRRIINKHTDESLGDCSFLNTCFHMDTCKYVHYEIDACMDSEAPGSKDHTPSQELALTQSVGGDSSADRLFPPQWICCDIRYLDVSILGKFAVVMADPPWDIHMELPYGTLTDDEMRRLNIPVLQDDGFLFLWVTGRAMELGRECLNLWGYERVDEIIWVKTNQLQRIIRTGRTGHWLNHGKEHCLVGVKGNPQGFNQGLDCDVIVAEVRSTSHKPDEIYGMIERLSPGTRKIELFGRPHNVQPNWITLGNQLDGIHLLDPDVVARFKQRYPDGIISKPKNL
Chain of METTL3/14 (Q9HCE5 whole entry partner): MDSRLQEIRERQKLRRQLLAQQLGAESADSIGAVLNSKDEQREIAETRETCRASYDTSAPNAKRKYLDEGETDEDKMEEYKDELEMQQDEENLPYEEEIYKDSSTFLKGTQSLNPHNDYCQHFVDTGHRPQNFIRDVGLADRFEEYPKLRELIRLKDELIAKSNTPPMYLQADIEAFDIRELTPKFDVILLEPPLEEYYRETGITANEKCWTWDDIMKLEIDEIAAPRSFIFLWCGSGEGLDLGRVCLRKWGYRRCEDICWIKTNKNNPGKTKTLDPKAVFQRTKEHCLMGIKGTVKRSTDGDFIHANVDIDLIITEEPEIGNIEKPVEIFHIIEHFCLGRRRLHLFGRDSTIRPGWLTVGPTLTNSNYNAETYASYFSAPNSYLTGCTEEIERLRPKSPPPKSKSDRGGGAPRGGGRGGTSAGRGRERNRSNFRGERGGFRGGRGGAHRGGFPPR

For the compound `O=C(NCc1cn2cc(CNCC34CC(F)(C3)C4)ccc2n1)c1cc(=O)n2ccsc2n1` [Example 19, N-[(6-{[({3-fluorobicyclo[1.1.1]pentan-1-yl}methyl)amino]methyl}imidazo[1,2-a]pyridin-2-yl)methyl]-5-oxo-5H-[1,3]thiazolo[3,2-a]pyrimidine-7-carboxamide], the IC50 (commonly the concentration that gives 50% inhibition) in assay [1] is 6.1 nM; in assay [2], 364 nM; in assay [3], 1360 nM.

On to `COc1cc(-c2cn(Cc3cn4cc(CNCC5CCC5)ccc4n3)nn2)c2cncn2c1` [Example 22, (cyclobutylmethyl)({2-[(4-{6-methoxyimidazo[1,5-a]pyridin-8-yl}-1H-1,2,3-triazol-1-yl)methyl]imidazo[1,2-a]pyridin-6-yl}methyl)amine], for which the values for the IC50 in assay [1], in assay [2] and in assay [3] were 6.1 nM, 305 nM and 1150 nM, respectively.

For the compound `c1cc(-c2cn(Cc3cn4cc(CNCC5CCC5)ccc4n3)nn2)c2cncn2c1` [Example 23, (cyclobutylmethyl)({2-[(4-{imidazo[1,5-a]pyridin-8-yl}-1H-1,2,3-triazol-1-yl)methyl]imidazo[1,2-a]pyridin-6-yl}methyl)amine], the IC50 in assay [1] worked out at 6.1 nM; in assay [2], 888 nM; in assay [3], 2940 nM.

Consider `Fc1ncn2cccc(-c3cn(Cc4cn5cc(CNCC6CCC6)ccc5n4)nn3)c12` [Example 25, (cyclobutylmethyl)({2-[(4-{1-fluoroimidazo[1,5-a]pyridin-8-yl}-1H-1,2,3-triazol-1-yl)methyl]imidazo[1,2-a]pyridin-6-yl}methyl)amine], for which the 50% inhibitory concentration (IC50) in assay [1] amounted to 15.8 nM; in assay [2] it was 2720 nM; in assay [3], 4820 nM.

Take `COc1cc(-c2cn(Cc3cn4cc(CNCC56CC(F)(C5)C6)ccc4n3)nn2)c2cncn2c1` [Example 26, ({3-fluorobicyclo[1.1.1]pentan-1-yl}methyl)({2-[(4-{6-methoxyimidazo[1,5-a]pyridin-8-yl}-1H-1,2,3-triazol-1-yl)methyl]imidazo[1,2-a]pyridin-6-yl}methyl)amine]: the figures for the concentration for half-maximal inhibition (IC50) in assay [1], in assay [2] and in assay [3] were 6.1 nM, 110 nM and 449 nM, respectively.

With `COc1cc(-c2cn(Cc3cn4cc(CNCC56CC(C5)C6)ccc4n3)nn2)c2cncn2c1` [Example 28, ({bicyclo[1.1.1]pentan-1-yl}methyl)({2-[(4-{6-methoxyimidazo[1,5-a]pyridin-8-yl}-1H-1,2,3-triazol-1-yl)methyl]imidazo[1,2-a]pyridin-6-yl}methyl)amine], the IC50 in assay [1] amounted to 6.1 nM; in assay [2], 102 nM; in assay [3], 316 nM.

In the case of `c1cc(-c2cn(Cc3cn4cc(CN5CC6(CCC6)C5)ccc4n3)nn2)c2cncn2c1` [Example 29, 2-({2-[(4-{imidazo[1,5-a]pyridin-8-yl}-1H-1,2,3-triazol-1-yl)methyl]imidazo[1,2-a]pyridin-6-yl}methyl)-2-azaspiro[3.3]heptane], the IC50 in assay [1] came out at 6.5 nM; in assay [2], 473 nM; in assay [3] it was 1570 nM.

Consider `COc1cc(-c2cn(Cc3cn4cc(CN5CC6(CCC6)C5)ccc4n3)nn2)c2cncn2c1` [Example 30, 2-({2-[(4-{6-methoxyimidazo[1,5-a]pyridin-8-yl}-1H-1,2,3-triazol-1-yl)methyl]imidazo[1,2-a]pyridin-6-yl}methyl)-2-azaspiro[3.3]heptane], for which the IC50 in assay [1] was determined as 6.1 nM; in assay [2], 598 nM; in assay [3] it was 2080 nM.

In the case of `COc1cnc(C#N)c(-c2cn(Cc3cn4cc(CN5CCC(C)(C)CC5)ccc4n3)nn2)c1` [Example 39, 3-[1-({6-[(4,4-dimethylpiperidin-1-yl)methyl]imidazo[1,2-a]pyridin-2-yl}methyl)-1H-1,2,3-triazol-4-yl]-5-methoxypyridine-2-carbonitrile], the IC50 is 5530 nM in assay [2] and 6210 nM in assay [3].

Consider `COc1cnc(C#N)c(-c2cn(Cc3cn4cc(CNCC56CC(F)(C5)C6)ccc4n3)nn2)c1` [Example 41, 3-{1-[(6-{[({3-fluorobicyclo[1.1.1]pentan-1-yl}methyl)amino]methyl}imidazo[1,2-a]pyridin-2-yl)methyl]-1H-1,2,3-triazol-4-yl}-5-methoxypyridine-2-carbonitrile], for which the IC50 in assay [1] turned out to be 16 nM; in assay [2] it was 4070 nM; in assay [3], 2660 nM.

For `COc1cncc(-c2cn(Cc3cn4cc(CNCC56CC(F)(C5)C6)ccc4n3)nn2)n1` [Example 44, ({3-fluorobicyclo[1.1.1]pentan-1-yl}methyl)[(2-{[4-(6-methoxypyrazin-2-yl)-1H-1,2,3-triazol-1-yl]methyl}imidazo[1,2-a]pyridin-6-yl)methyl]amine], the results for the IC50 in assay [2] and in assay [3] were 2440 nM and 1990 nM, respectively.

As for `COc1cncc(-c2cn(Cc3cn4cc(CNCC56CC(F)(C5)C6)ccc4n3)nn2)c1` [Example 45, ({3-fluorobicyclo[1.1.1]pentan-1-yl}methyl)[(2-{[4-(5-methoxypyridin-3-yl)-1H-1,2,3-triazol-1-yl]methyl}imidazo[1,2-a]pyridin-6-yl)methyl]amine], the IC50 in assay [2] came out at 918 nM; in assay [3], 2520 nM.

For the compound `COc1ccncc1-c1cn(Cc2cn3cc(CNCC45CC(F)(C4)C5)ccc3n2)nn1` [Example 47, ({3-fluorobicyclo[1.1.1]pentan-1-yl}methyl)[(2-{[4-(4-methoxypyridin-3-yl)-1H-1,2,3-triazol-1-yl]methyl}imidazo[1,2-a]pyridin-6-yl)methyl]amine], the IC50 worked out at 13 nM in assay [1], 1380 nM in assay [2] and 4450 nM in assay [3].

Turning to `N#Cc1ncc(N2CCOCC2)cc1-c1cn(Cc2cn3cc(CNCC45CC(F)(C4)C5)ccc3n2)nn1` [Example 51, 3-{1-[(6-{[({3-fluorobicyclo[1.1.1]pentan-1-yl}methyl)amino]methyl}imidazo[1,2-a]pyridin-2-yl)methyl]-1H-1,2,3-triazol-4-yl}-5-(morpholin-4-yl)pyridine-2-carbonitrile], the IC50 was 6 nM in assay [1], 1330 nM in assay [2] and 1860 nM in assay [3].

With `FC12CC(CNCc3ccc4nc(Cn5cc(-c6cncc(N7CCOCC7)c6)nn5)cn4c3)(C1)C2` [Example 52, ({3-fluorobicyclo[1.1.1]pentan-1-yl}methyl)({[2-({4-[5-(morpholin-4-yl)pyridin-3-yl]-1H-1,2,3-triazol-1-yl}methyl)imidazo[1,2-a]pyridin-6-yl]methyl})amine], the IC50 in assay [1] was found to be 6 nM; in assay [2], 540 nM; in assay [3] it was 1610 nM.
